The values that follow come from US8158621B2, “Methods of treating or preventing autoimmune diseases with 2,4-pyrimidinediamine compounds” (Rigel Pharmaceuticals, Inc., priority 2002, dated 2012).

Some results are limits rather than exact numbers.

The first test concerns Human Jurkat T-cells (clone N). As to the kind of experiment: Jurkat T-cell activation (anti-TCR, CD69 upregulation). Type of test: cell-based.
Settings: not given
As to the method:
The screening process took place over three days.
On the first day of the screen, cultured cells were spun down on a centrifuge (1000 rpm, 5 minutes) and resuspended at 3.0×10^5 cells/ml in RPMI+5% FBS. On the second day of the screen, cells were spun down at 1000 rpm for 5 minutes and resuspended in RPMI+5% FBS at 1.3×10^5 cells/ml. 85 μl of this cell suspension were added to the wells of U-bottom 96 well plates (Corning) 85 μl of compound or diluted RPMI+5% FBS (as a control) only was added to each well and incubated at 37° C. for 1 hour. The cells were then stimulated with anti-TCR (C305) at: 500 ng/ml by adding a 8× solution in 25 μl to the plated cells. The cells were then incubated at 37° C. for 20 hrs.
On the third day of the screen, the plates were spun at 2500 RPM for 1 minute on a Beckman GS-6R centrifuge, and the medium was then removed. 50 μl staining solution (1:100 dilution of anti-CD69-APC antibody (Becton Dickenson) in PBS+2% FBS) was then added to each well, followed by incubation of the plates 4 degrees for 20 minutes in the dark. 150 μl of wash buffer (PBS+2% FBS) was then added to each well, and the plates were spun at 3000 RPM for 1 minute. The supernatant was again removed, and the pellet was resuspended by vortexing gently. 75 μl of PBS+2% FBS +Cytofix (1:4 dilution) was then added, the plates gently vortexed and wrap in aluminum foil. Cells from the plates were read using a flow cytometer coupled to an automated liquid handling system.
Varied concentrations of compound were compared to solvent only to determine the inhibition of T-cell activation IC50 of each compound.
As to `Cc1cc(Nc2nc(Nc3cccc(OCC(=O)N4CCNCC4)c3)ncc2F)cc(Cl)c1O` [Compound R945149], half-maximal inhibition (IC50) required 1.23 µM.

Turning to `CNC(=O)COc1cc(Nc2ncc(F)c(Nc3ccc(C)c(O)c3)n2)ccc1C` [Compound R926759], the concentration for half-maximal inhibition (IC50) worked out at 1.71 µM.

In turn, `COc1ccc(Nc2ncc([N+](=O)[O-])c(Nc3ccc(OC)c(OC)c3)n2)cc1OC` [Compound R940089] had a half-maximal inhibitory concentration (IC50) greater than 10 µM.

On to `CC1(C)Oc2ccc(Nc3nc(Cl)ncc3F)cc2NC1=O` [Compound R940322], for which it took 4.57 µM to reach half-maximal inhibition (IC50).

As for `CNC(=O)COc1cccc(Nc2ncc(F)c(Nc3cccc(Cl)c3)n2)c1` [Compound R926832], half-maximal inhibition (IC50) was put at 2.99 µM.

Compound `OCCCn1ncc2ccc(Nc3ncc(F)c(Nc4ccc5c(c4)OCCO5)n3)cc21` [Compound R935287] registered an IC50 of 1.7 µM.

Turning to `Fc1cnc(Nc2ccc3cn[nH]c3c2)nc1Nc1ccc2c(c1)OCCO2` [Compound R935190], 3.47 µM corresponded to half-maximal inhibition (IC50).

As to `O=C(c1cc2cc(Nc3ncc(F)c(Nc4ccc5c(c4)OCCO5)n3)ccc2o1)N1CCCNCC1` [Compound R926768], the IC50 was found to be 0.973 µM.

Turning to `O=C(CNc1cccc(Nc2ncc(F)c(Nc3ccc4c(c3)OCCO4)n2)c1)N(CCO)CCO` [Compound R950199], the concentration for half-maximal inhibition (IC50) was 3.21 µM.

For `CNC(=O)COc1cccc(Nc2ncc(F)c(Nc3cnc4c(c3)OC(C)(C)C(=O)N4)n2)c1` [Compound R940345], half-maximal inhibition (IC50) was put at 5.4 µM.

`CCOC(=O)COc1cccc(Nc2nc(Nc3cccc(O)c3)ncc2F)c1` [Compound R926775] had an IC50 greater than 10 µM.

As to `CCOC(=O)COc1cccc(Nc2ncc(F)c(Nc3ccc4c(c3)C(OC)CCO4)n2)c1` (stereo not shown) [Compound R950294], the IC50 is 9.79 µM.

Turning to `Cc1cc(Nc2nc(Nc3cccc(OCCN4CCNCC4)c3)ncc2F)cc(Cl)c1O` [Compound R945150], inhibition was half-maximal at 1.11 µM (IC50).

`O=C(COc1cccc(Nc2ncc(F)c(Nc3cccc(O)c3)n2)c1)N1CCNCC1` [Compound R926772] came in with an IC50 of 2.04 µM.

With `CC(CO)Nc1cccc(Nc2ncc(F)c(Nc3cccc(NC(C)CO)c3)n2)c1` (stereo not shown) [Compound R950171], half-maximal inhibition (IC50) required 4.36 µM.

In turn, `CC(C)(CO)c1ccc(Nc2ncc(F)c(Nc3ccc4oc(CO)cc4c3)n2)cc1` [Compound R935177] had an IC50 of 4.15 µM.

`CCOC(=O)COc1ccc(Nc2ncc(F)c(Nc3ccc(OCC(=O)OCC)c(Cl)c3)n2)cc1Cl` [Compound R926676] came in with an IC50 greater than 10 µM.

For `CCOC(=O)C(C)(Oc1cccc(Nc2nc(Nc3ccc(OC(C)C)cc3)ncc2F)c1)C(=O)OCC` [Compound R935187], the IC50 is greater than 10 µM.

Compound `Oc1cccc(Nc2nc(Nc3ccc4oc(CN5CCNCC5)cc4c3)ncc2F)c1` [Compound R926769] displayed an IC50 of 2.79 µM.

Take `CNC(=O)COc1ccc(Nc2nc(Nc3ccc4c(c3)OCCO4)ncc2F)cc1` [Compound R945173]: 2.88 µM corresponded to half-maximal inhibition (IC50).

`CNC(=O)COc1cccc(Nc2ncc(F)c(Nc3ccc4c(c3)NCCO4)n2)c1` [Compound R920395] showed an IC50 of 0.726 µM.

On to `Fc1cnc(Nc2ccc3c(c2)OCCO3)nc1Nc1ccc(OCCN2CCOCC2)cc1` [Compound R926711], for which the IC50 was 3.79 µM.

As to `CN1CCN(C(=O)CNc2cccc(Nc3ncc(F)c(Nc4ccc5c(c4)OCCO5)n3)c2)CC1` [Compound R950194], the IC50 came to 5.13 µM.

`CNC(=O)COc1cccc(Nc2ncc(F)c(Nc3ccc4c(c3)C(=O)CCO4)n2)c1` [Compound R950345] had an IC50 of 6.09 µM.

For the compound `CCOC(=O)CNc1cccc(Nc2ncc(F)c(Nc3cccc(NCCO)c3)n2)c1` [Compound R950229], the IC50 is 3.77 µM.

As to `Oc1cccc(Nc2nc(Nc3ccc4oc(CN5CCNCC5)cc4c3)ncc2F)c1` [Compound R926770], 0.891 µM corresponded to half-maximal inhibition (IC50).

`CCOC(=O)CSc1ccc(Nc2ncc(F)c(Nc3ccc4c(c3)OCCO4)n2)cn1` [Compound R926727]: the IC50 is greater than 10 µM.

As for `CN(CCO)C(=O)COc1cccc(Nc2ncc(F)c(Nc3ccc4c(c3)OCCO4)n2)c1` [Compound R926766], the IC50 came to 4.24 µM.

In the case of `CNC(=O)COc1cccc(Nc2ncc(F)c(Nc3ccc(C)c(OC)c3)n2)c1` [Compound R926902], the IC50 is greater than 10 µM.

`O=C(O)COc1ccc(Nc2ncc(F)c(Nc3ccc4c(c3)OCCO4)n2)cc1` [Compound R926238]: the IC50 is greater than 10 µM.

Take `Cc1nc(COc2cccc(Nc3nc(Nc4cccc(O)c4)ncc3F)c2)no1` [Compound R945132]: the IC50 amounted to 20.2 µM.

Consider `O=C(COc1cccc(Nc2ncc(F)c(Nc3cccc(O)c3)n2)c1)NCC(O)CO` (stereo not shown) [Compound R926746], for which the IC50 came to 3.7 µM.

For `O=C(O)c1cnc(Nc2cccc(O)c2)nc1NC(C(=O)O)c1ccccc1` (stereo not shown) [Compound R926535], the IC50 was greater than 10 µM.

As for `CNC(=O)COc1cccc(Nc2ncc(F)c(Nc3ccc4c(c3)N(C)C(=O)CO4)n2)c1` [Compound R909260], 3.33 µM corresponded to half-maximal inhibition (IC50).

`CNC(=O)CCn1ncc2cc(Nc3ncc(F)c(Nc4ccc5c(c4)OCCO5)n3)ccc21` [Compound R935309] displayed an IC50 of 0.779 µM.

`CNC(=O)COc1cccc(Nc2nc(Nc3ccc(OCCN(C)C)cc3)ncc2F)c1` [Compound R909253] came in with an IC50 of 3.08 µM.

The compound `CC(C)(C)c1ccc(Nc2nc(Nc3cccc(OCC(=O)O)c3)ncc2F)cc1` [Compound R926726] had an IC50 greater than 10 µM.

Compound `CCOC(=O)COc1cccc(Nc2nc(Nc3cccc(C(C)(C)C)c3)ncc2F)c1` [Compound R940266] returned an IC50 greater than 10 µM.

`COC(=O)COc1ccc(Nc2ncc(F)c(Nc3ccc(OCC(=O)OC)cc3)n2)cc1` [Compound R926240] registered an IC50 greater than 10 µM.

For the compound `O=C(CNc1cccc(Nc2ncc(F)c(Nc3ccc4c(c3)OCCO4)n2)c1)NCCN1CCOCC1` [Compound R950200], half-maximal inhibition (IC50) was put at 2.26 µM.

`CCOC(=O)COc1ccc(Nc2ncc(C(F)(F)F)c(Nc3ccc(OCC(=O)OCC)cc3)n2)cc1` [Compound R925862]: the IC50 was greater than 10 µM.

The same test, now with this note: Homo sapiens, Jurkat.
Consider `CC(C)(C)c1cccc(Nc2ncc(F)c(Nc3cccc(O)c3)n2)c1` [Compound R940257], for which the half-inhibitory concentration (IC50) was greater than 10 µM.

The compound `Nc1c(F)ccc(Nc2ccnc(Nc3ccc(F)c(N)c3F)n2)c1F` [Compound R950131] came in with an IC50 greater than 10 µM.

For the compound `COc1ccc(Nc2nc(Nc3cccc(O)c3)ncc2F)c(OC)n1` [Compound R926887], the IC50 amounted to 5.92 µM.

Compound `Nc1cc(Nc2ncc(F)c(Nc3cc(N)cc(C(F)(F)F)c3)n2)cc(C(F)(F)F)c1` [Compound R950140] came in with an IC50 of 22.4 µM.

On to `Oc1ccc(Nc2ncc(F)c(Nc3ccc(O)cc3F)n2)c(F)c1` [Compound R926683], for which the IC50 amounted to 7.63 µM.

For `COc1ccc(-c2ccccc2)cc1Nc1ccnc(Nc2cc(-c3ccccc3)ccc2OC)n1` [Compound R925805], the IC50 was greater than 10 µM.

Consider `COc1cc(Nc2ncc(F)c(Nc3cccc(O)c3)n2)c(OC)cc1Cl` [Compound R926857], for which the IC50 was greater than 10 µM.

Regarding `O=S(=O)(c1ccc(Nc2ncc(F)c(Nc3ccc4c(c3)OCCO4)n2)cc1)N1CCCC1` [Compound R926716], the midpoint of inhibition, the IC50, lay at 3.62 µM.

Consider `COC(=O)C(CC(C)C)Nc1ncc(C#N)c(NC(CC(C)C)C(=O)OC)n1` (stereo not shown) [Compound R925815], for which the IC50 is greater than 10 µM.

As to `Fc1cnc(Nc2ccc(C(F)(F)F)cc2)nc1Nc1ccc(C(F)(F)F)cc1` [Compound R926016], the IC50 is greater than 10 µM.

Take `Brc1cnc(Nc2ccccc2-c2ccccc2)nc1Nc1ccccc1-c1ccccc1` [Compound R925798]: the IC50 was greater than 10 µM.

As for `OCCOc1cccc(Nc2ncc(F)c(Nc3ccc4oc(CO)cc4c3)n2)c1` [Compound R935178], 3.04 µM corresponded to half-maximal inhibition (IC50).

On to `COc1ccc(-c2ccccc2)cc1Nc1ncc(Br)c(Nc2cc(-c3ccccc3)ccc2OC)n1` [Compound R925799], for which the IC50 was greater than 10 µM.

In turn, `CC(C)(C)c1ccc(Nc2nc(Nc3ccc4c(c3)CC(C(=O)O)O4)ncc2F)cc1` (stereo not shown) [Compound R926720] returned an IC50 greater than 10 µM.

With `Nc1cc(Cl)cc(Nc2ccnc(Nc3cc(N)cc(Cl)c3)n2)c1` [Compound R950133], the IC50 was found to be 4.7 µM.

`C=CCNc1ncc(F)c(Nc2ccc3c(c2)OCCO3)n1` [Compound R925823] gave an IC50 of 9.33 µM.

In turn, `Fc1cnc(NCCc2ccccc2)nc1Nc1ccc2c(c1)OCCO2` (racemic) [Compound R908697] came in with an IC50 greater than 10 µM.

Turning to `COC(=O)c1cc2cc(Nc3ncc(F)c(Nc4ccc5c(c4)OCCO5)n3)ccc2o1` [Compound R926690], the midpoint of inhibition, the IC50, lay at 13.4 µM.

`Clc1cccc(-c2cnc(Nc3ccc4c(c3)OCCO4)nc2Nc2ccc3c(c2)OCCO3)c1` [Compound R925787] returned an IC50 greater than 10 µM.

In the case of `Fc1cnc(Cl)nc1Nc1cccc(-c2nnc(-c3ccccc3)o2)c1` [Compound R926869], the IC50 is greater than 10 µM.

Turning to `Cc1cc(O)cc(N(c2ccc3c(c2)OCCO3)c2nc(N)ncc2F)c1` [Compound R926893], the IC50 is greater than 10 µM.

For the compound `O=C1COc2cc(Nc3ncc(F)c(Nc4cccc(O)c4)n3)ccc2N1` [Compound R908699], it took 1.03 µM to reach half-maximal inhibition (IC50).

For the compound `Nc1c(F)ccc(Nc2ncc(F)c(Nc3ccc(F)c(N)c3F)n2)c1F` [Compound R950138], the IC50 was greater than 10 µM.

By IC50 is commonly meant the concentration that gives 50% inhibition. Read a high IC50 as lower potency.
